Experimental data published in patent US20080255240A1, “Sulfonamide Derivatives” (Novo Nordisk A/S, priority 2004, published 2008).
Counter-ions that a name gives are not always drawn.

SMILES	melting point [°C]
COc1ccc(NS(=O)(=O)c2cc(C)cc(C(C)(C)C)c2O)cc1 [Example 5, 3-tert-Butyl-2-hydroxy-N-(4-methoxy-phenyl)-5-methyl-benzenesulfonamide]	130 to 134
CC(C)(C)c1cc(C(C)(C)C)c(O)c(S(=O)(=O)Nc2ccc([N+](=O)[O-])cc2Cl)c1 [Example 6, 3,5-Di-tert-butyl-N-(2-chloro-4-nitro-phenyl)-2-hydroxy-benzenesulfonamide]	158 to 161
CCC(C)c1cc(C(C)(C)C)c(O)c(S(=O)(=O)Nc2ccc([N+](=O)[O-])cc2Cl)c1 (stereo not shown) (as salt: Na) [Example 7, 5-sec-Butyl-3-tert-butyl-N-(2-chloro-4-nitro-phenyl)-2-hydroxy-benzenesulfonamide]	106 to 108
Cc1cc(C(C)(C)C)c(O)c(S(=O)(=O)Nc2ccc(C#N)cc2Cl)c1 [Example 3, 3-tert-Butyl-N-(2-chloro-4-cyano-phenyl)-2-hydroxy-5-methyl-benzenesulfonamide]	101 to 105
Cc1cc(C(C)(C)C)c(O)c(S(=O)(=O)Nc2ccc([N+](=O)[O-])cc2Cl)c1 [Example 1, 3-tert-Butyl-N-(2-chloro-4-nitro-phenyl)-2-hydroxy-5-methyl-benzenesulfonamide]	239 to 243
Cc1cc(C(C)(C)C)c(O)c(S(=O)(=O)Nc2ccc(C#N)c(C(F)(F)F)c2)c1	159 to 162
Cc1cc(C(C)(C)C)c(O)c(S(=O)(=O)Nc2ccc(I)cc2)c1 [Example 4, 3-tert-Butyl-2-hydroxy-N-(4-iodo-phenyl)-5-methyl-benzenesulfonamide]	184 to 185
